Source: patent US20030012732A1, “Feeding assay for identifying nematicidal compounds” (priority 1999, published 2003)

Columns and labels:
C. elegans [1] = assay: Feeding assay: ingestion of fluorescent microsphere beads (pharyngeal pumping), read by fluorimetry / fluorescence microscopy; type: in vivo, C. elegans of the Bristol N2 strain
Protocol: 1. C. elegans of the Bristol N2 strain (Brenner, S. 1974. The genetics of Caenorhabditis elegans. Genetics 77: 71-94) were cultured at room temperature on HMS174 E. coli bacteria (Campbell, J. L., Richardson, C., and Studier, F. W. 1978. Genetic recombination and complementation between bacteriophage T7 and cloned fragments of T7 DNA. Proc. Natl. Acad. Sci. USA. 75: 2276-2280) spread on a 150 mm diameter petri dish containing enhanced NGM 3% (w/v) (Avery, L., and Horvitz, H. R. 1990. Effects of starvation and neuroactive drugs on feeding in Caenorhabditis elegans. J. Exp. Zool. 253: 263-270) agar until a good population of adult nematodes was present, but food reserves had not been exhausted. (Nematodes may be mass cultured in suspension if required).
2. The nematodes were collected by washing with 10 mL and then 5 mL of […] and filtering over a 20 μm nylon mesh (Nytal—Catalogue no. BCNY-HD002-20) to retain adult nematodes.
3. Adult nematodes were collected from the mesh using a pasteur pipette and allowed to settle in an eppendorf tube at 1 g for 10 minutes. This packed volume was used to calculate quantities of nematodes for experiments and assays, although nematodes were resuspended in 2-10 volumes of M9 buffer for transfer. Quantitative transfers of nematodes were performed using a Gilson Pipetman P200 or equivalent and a yellow tip with 5 mm cut off the sharp end.
4. 96-well mesh-bottomed plates were blocked prior to performing the assay in order to minimise non-specific adherence of fluorescent microsphere beads. To block, 200 μL of a 0.1% (w/v) suspension of dark blue-dyed, non-fluorescent microsphere beads with a mean diameter of 0.95 μm and a hydrophilic surface coating (Catalogue code DC03B, carboxylate-modified polystyrene/polyvinyl copolymer) (manufactured and supplied by Bangs Laboratories, Inc. 9025 Technology Drive. Fishers, Ind. 46038-2886, USA) were added to the plate and incubated overnight at room temperature with orbital shaking at 70 r.p.m. Prior to the assay, the bead suspension was removed under vacuum using a Millipore Multiscreen manifold. The plate was washed three times by pipetting 200 μL of M9 buffer into each well, allowing the plate to sit for 5 minutes and then sucking off the suspension.
5. The assay was either set up in the wells of a solid-bottomed 24-well plate using a final assay volume in the range of 0.5 to 1.0 mL or it was set up in the wells of a 96-well mesh bottomed plate (Millipore Multiscreen N20 plates, custom order no. SE3R090M6). In the latter case, the final assay volume was always 100 μL. The assay buffer in all cases was M9. The added volume of a stock of M9 and the added volume of double-distilled water were adjusted so as to achieve a final concentration of 1×M9 in the desired assay volume. A sufficient volume of a suspension of nematodes was added to the assay wells to give a final percentage in the range of 2.5% to 15% (v/v) depending on the experiment. A stock solution of the drug or test compound (e.g. serotonin) was added to the wells of the plate to give the desired final concentration. A sufficient volume of a suspension of fluorescent microsphere beads in double-distilled water was added to give a final concentration in the range of 0.025% to 0.1% (w/v) depending on the experiment.
6. The fluorescent beads were 1.30 μm uniformly dyed microsphere beads with a hydrophilic surface-coating. The fluorescence excitation maximum was 420 nm and the emission maximum was 485 nm (catalogue code FC04F, carboxylate-modified polystyrene/polyvinyl copolymer, manufactured and supplied by Bangs Laboratories, Inc. 9025 Technology Drive, Fishers, Ind. 46038-2886, USA).
7. The assay plate was placed on an orbital shaker at 70 r.p.m. at room temperature and incubated for up to 180 minutes (normally 60 minutes), under subdued illumination.
8. At the end of the incubation 20 μL of 100 mM sodium azide was added to the wells of the 96-well mesh plate. […]

C. elegans [2] = assay: Videotaping nematodes under Nomarski interference microscopy (pharyngeal pumping rate); type: in vivo; details: at the doses of FIG. 3, separate experiments (not shown)

## NCCc1c[nH]c2ccc(O)cc12 [serotonin]
C. elegans [1]; 5 mM serotonin, 60 minutes, FIG. 3
  effect of high concentration on signal (bead ingestion): suboptimal
C. elegans [1]; 10 μL packed volume of adult nematodes (1,600-1,800 nematodes), two hour incubation, gain setting of 30
  signal over control: 6246 arbitrary fluorescence intensity units
C. elegans [1]; estimated, high magnification examination
  microsphere beads contained in strongly labelled nematodes: at least several hundred microsphere beads
C. elegans [1]; in vivo
  effect on microsphere bead ingestion when present during the incubation: increased microsphere bead ingestion
C. elegans [1]; later experiments, optimised conditions
  average number of microsphere beads ingested by nematodes more than a control nematode: ≤ 2,400 microsphere beads
C. elegans [1]; later experiments, optimised conditions, same volume of nematodes
  signal strength over control relative to the earlier experiment: approximately 6 times greater
C. elegans [1]; other experiments under similar conditions to FIG. 1, high magnification examination
  treated nematodes that had ingested one or more microsphere beads: approximately 80%
C. elegans [1]; same experiment, two hour incubation
  microsphere beads ingested on average per serotonin-treated nematode more than a control nematode: 417 microsphere beads
C. elegans [2]
  effect on pharyngeal pumping rate: directly affects pharyngeal pumping rate
